This is an account of results in paper PMC10202292, “The exquisite specificity of human protein arginine methyltransferase 7 (PRMT7) toward Arg-X-Arg sites” (PLOS ONE, 2023).

The test system of one data set is human PRMT7. The settings on record: cited from earlier work; for PRMT7 activity with substituted human histone H2B (23–37) peptides: relative to unsubstituted peptide. As to the method:
Comparatively, a previous study of ionic strength in human HEK293 cells estimates the intracellular concentration of potassium ions to be about 120–140 mM in human cells. As such, our results in Fig 7 led us to question whether this dramatic decrease in activity may be associated with a loss of either substrate-enzyme binding affinity or catalytic activity. || We confirm that human PRMT7 activity is quite sensitive to changes in the RXR target sequence in the substrate protein. […] The exquisite specificity of PRMT7 toward the basic RXR motif can be contrasted to the much broader speci ...

Data set [1] concerns the target T1, GST-HsPRMT7 (Homo sapiens, UniProt Q9NVM4).
T1 construct: full-length human PRMT7 (residues 1–692); 34693; host or cells: E. coli BL21 DE3
T1 sequence (Q9NVM4 1-692): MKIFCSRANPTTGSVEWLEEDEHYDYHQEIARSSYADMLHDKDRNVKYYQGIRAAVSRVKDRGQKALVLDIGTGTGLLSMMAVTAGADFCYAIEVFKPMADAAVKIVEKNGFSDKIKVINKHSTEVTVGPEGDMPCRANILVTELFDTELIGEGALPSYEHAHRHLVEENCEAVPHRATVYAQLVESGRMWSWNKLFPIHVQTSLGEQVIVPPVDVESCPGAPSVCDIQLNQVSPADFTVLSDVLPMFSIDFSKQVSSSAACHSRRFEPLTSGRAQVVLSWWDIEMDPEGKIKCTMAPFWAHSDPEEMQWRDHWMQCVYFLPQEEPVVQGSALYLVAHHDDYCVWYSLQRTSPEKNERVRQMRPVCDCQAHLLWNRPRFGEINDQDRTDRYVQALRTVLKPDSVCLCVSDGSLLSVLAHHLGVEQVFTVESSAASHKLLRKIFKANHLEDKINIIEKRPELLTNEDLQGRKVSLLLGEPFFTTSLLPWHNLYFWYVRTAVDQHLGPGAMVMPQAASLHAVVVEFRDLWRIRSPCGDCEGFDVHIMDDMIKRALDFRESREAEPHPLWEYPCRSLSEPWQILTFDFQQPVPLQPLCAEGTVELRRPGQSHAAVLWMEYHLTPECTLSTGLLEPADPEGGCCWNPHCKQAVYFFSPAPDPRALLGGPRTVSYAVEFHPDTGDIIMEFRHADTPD
Description: Michaelis-Menten kinetics of peptide substrate methylation (P81 phosphocellulose paper assay). In kind it is biochemical. The arrangement: key to Vmax, Michaelis-Menten best-fit value, Fig7 / Vmax, Michaelis-Menten best-fit value, Fig8: Vmax expressed as cpm (averages of cycles 2–4). As to the method: (§1) In vitro methylation assays were performed with GST-HsPRMT7, the indicated substrate protein or peptide, and 1.4 μM S-adenosyl-L-[methyl-^3H]methionine ([^3H]-AdoMet; PerkinElmer cat no. NET155V), prepared from diluting a stock of 7.0 μM [^3H]-AdoMet (81.9 Ci/mmol, 1 mCi/mL in 9:1 10 mM H2SO4:EtOH, v/v) in 10 mM HCl. All reactions were performed using distilled water buffered with 50 mM potassium HEPES, pH 9.5 and 1 mM DTT, reaching a final reaction volume of 30 μL. The reactions were initiated by adding [^3H]-AdoMet to a final concentration of 0.14 μM. Control reactions (enzyme-only, substrate-only) contained distilled water instead of substrate or GST-HsPRMT7, respectively. After initiation with [^3H]-AdoMet, all reactions analyzed via P81 phosphocellulose filter paper assay were incubated in a water bath at 25°C unless otherwise indicated for the specified time periods and were terminated with 0.5 μL 100% (w/v) trifluoroacetic acid (TFA). P81 assays performed at t = 0 were individually terminated immediately following initiation. Samples analyzed via SDS-PAGE were incubated at 4°C for 24 hours and were quenched by adding 5x SDS sample loading buffer (250 mM Tris-HCl, pH 6.8; 10% SDS, 30% glycerol, 10% β-mercaptoethanol, 0.2% bromophenol blue), followed by heating at 97°C for 3 min.
(§2) In vitro methylation assays with GST-HsPRMT7, selected methyl-accepting substrates, and [^3H]-AdoMet were set up as described previously and performed in triplicate. Following incubation at 25°C unless otherwise indicated for the time periods specified, all samples were quenched with 0.5 μL 100% TFA and centrifuged at 9,300 g for 10 seconds in an Eppendorf centrifuge (Model 5417C). 1 cm^2 pieces of P81 phosphocellulose filter paper (LabAlley catalog no. 05-717-2A) were spotted with 25 μL from each reaction mixture and set to dry overnight. The following day, all filter paper pieces were washed three times with 50 mM sodium bicarbonate solution, pH 9.0, and dried again in liquid scintillation vials. After 5 mL of Safety Solve fluor (RPI industries) was added to each vial, [^3H] radioactivity in each sample was quantified via liquid scintillation counter (Beckman LS6500) for four total cycles at 5 minutes per sample. All data presented are expressed as averages of the cpm from cycles 2–4.
(§3) Statistical analyses were performed using the “Analyze Data” function on GraphPad Prism v.8.0.1. To determine statistical significance, unpaired homoscedastic two-tailed Student’s t tests were performed with significance level α = 0.05 with the relevant data. To obtain apparent km and Vmax values, kinetic data were analyzed by non-linear regression using the Michaelis-Menten equation.

Data set [2] addresses T1, GST-HsPRMT7. The experiment in a line: P81 phosphocellulose filter paper methylation assay with peptide substrates (cpm, end point and time course). It counts as biochemical. As to conditions: 10 μM peptide. The protocol: as §1, §2, §3
Another data set relates to PRMT9. The settings on record: methylation of SF3B2 at Arg508 (505-CFKRKYL-511); cited from earlier work. From the text:
We confirm that human PRMT7 activity is quite sensitive to changes in the RXR target sequence in the substrate protein. […] The exquisite specificity of PRMT7 toward the basic RXR motif can be contrasted to the much broader speci ...

Where two headings read alike, the source gives them in different places. No end group written: not given here.

For orientation: Km means the substrate concentration at which the rate is half of its maximum. Take “Ac-KKDGKKRKRSRKESY-NH2 [Hs H2B (23–37), synthetic peptide of amino acids 23–37 of human histone H2B, PRMT7 substrate used as positive control, reference compound]”: in the data set with human PRMT7 (addition of 50 mM NaCl or KCl), the “change of GST-HsPRMT7 activity on addition of salt” value is reported as “decreases by half”. For the same molecule, the Km at GST-HsPRMT7 [1] (+ 130 mM KCl, 5 μg GST-HsPRMT7, 0.14 μM [3H]-AdoMet, 60 min, 25°C, GraphPad Prism fit, read-out: Km, Michaelis-Menten best-fit value, Fig8) was determined as 16.8 µM; on GST-HsPRMT7 [1] (+130 mM KCl, apparent km, 5 μg GST-HsPRMT7, various peptide concentrations, 0.14 μM [3H]-AdoMet, 60 min, 25°C, pH 9.5, Michaelis-Menten fit, triplicates (Fig 8), read-out: km), 17 µM; on GST-HsPRMT7 [1] (no added salt, apparent km of peptide substrate, 5 μg GST-HsPRMT7, various peptide concentrations, 0.14 μM [3H]-AdoMet, 60 min, 25°C, pH 9.5, Michaelis-Menten fit, triplicates (Fig 8), read-out: km), 0.6 µM; at GST-HsPRMT7 [1] (no salt, 5 μg GST-HsPRMT7, 0.14 μM [3H]-AdoMet, 60 min, 25°C, GraphPad Prism fit, read-out: Km, Michaelis-Menten best-fit value, Fig8), 0.558 µM. The “Vmax, Michaelis-Menten best-fit value, Fig8” value at GST-HsPRMT7 [1] (no salt, 5 μg GST-HsPRMT7, 0.14 μM [3H]-AdoMet, 60 min, 25°C, GraphPad Prism fit) was found to be 17053. For the same molecule, the “increase of apparent km on adding 130 mM KCl” value at GST-HsPRMT7 [1] (with vs without 130 mM KCl (Fig 8, Table 2)) came out at 30 fold. For the same molecule, the “change of Vmax after adding 130 mM KCl” value on GST-HsPRMT7 [1] (with vs without 130 mM KCl (Fig 8, Table 2), in words) is “relatively unchanged”. For the same molecule, the methylation activity result at GST-HsPRMT7 [2] (5 μg GST-HsPRMT7, 0.14 μM [3H]-AdoMet, 25°C, 1 hour (Fig 4), approximate) is “approximately 6,000 cpm”. Further, the “methylation activity (maximum value)” value at GST-HsPRMT7 [2] (5 μg GST-HsPRMT7, 0.14 μM [3H]-AdoMet, 25°C, t = 120 min (Fig 6), approximate) was “about 4,000 cpm”. Moreover, the “methylation activity (maximum)” value on GST-HsPRMT7 [2] (5 μg GST-HsPRMT7, 0.14 μM [3H]-AdoMet, 25°C, t = 3 hours (Fig 4), approximate) is “approximately 8,000 cpm”. For the same molecule, the GST-HsPRMT7 methylation activity result at GST-HsPRMT7 [2] (5 μg GST-HsPRMT7, 0.14 μM [3H]-AdoMet, 40 min, 25°C (Fig 3), in words) is given as “highest”. The PRMT7 methylation activity entry on GST-HsPRMT7 [2] (5 μg GST-HsPRMT7, 0.14 μM [3H]-AdoMet, 20 h, 4°C (Fig 5), in words) is “highest PRMT7 methylation activity”. Further, the “Mean of GST-HsPRMT7 + peptide, Fig3” value on GST-HsPRMT7 [2] (mean of n = 3, 40 min, 25°C) amounted to 1604 cpm. Also, the “Difference between means ± SEM vs peptide only, Fig3” value on GST-HsPRMT7 [2] (n = 3, 40 min, 25°C, SEM) stood at 1523 ± 86.54 cpm.
On to “R31K-substituted human H2B (23–37): R31K-substituted human H2B (23–37) peptide, from ref 11 (KKDGKKRKKSRKESY; not fully specified (N-terminus, C-terminus); UniProt P62807 24-38, looked up, variant R31K)”, for which the “PRMT7 activity with substituted human histone H2B (23–37) peptides” value in the data set on human PRMT7 is on record as “no methyl-accepting activity”.
Turning to “R29K: human histone H2B (23–37) peptide with R29K substitution, from ref 11 (KKDGKKKKRSRKESY; not fully specified (N-terminus, C-terminus); UniProt P62807 24-38, looked up, variant R29K)”, in the data set with human PRMT7, the “PRMT7 activity with substituted human histone H2B (23–37) peptides” value is listed as “at least a two-thirds reduction”.

B1: SF3B2: splicing factor SF3B2, methylated by PRMT9 at Arg508 (protein, UniProt Q13435 1-895, looked up)
Splicing factor 3B subunit 2: MATEHPEPPKAELQLPPPPPPGHYGAWAAQELQAKLAEIGAPIQGNREELVERLQSYTRQTGIVLNRPVLRGEDGDKAAPPPMSAQLPGIPMPPPPLGLPPLQPPPPPPPPPPGLGLGFPMAHPPNLGPPPPLRVGEPVALSEEERLKLAQQQAALLMQQEERAKQQGDHSLKEHELLEQQKRAAVLLEQERQQEIAKMGTPVPRPPQDMGQIGVRTPLGPRVAAPVGPVGPTPTVLPMGAPVPRPRGPPPPPGDENREMDDPSVGPKIPQALEKILQLKESRQEEMNSQQEEEEMETDARSSLGQSASETEEDTVSVSKKEKNRKRRNRKKKKKPQRVRGVSSESSGDREKDSTRSRGSDSPAADVEIEYVTEEPEIYEPNFIFFKRIFEAFKLTDDVKKEKEKEPEKLDKLENSAAPKKKGFEEEHKDSDDDSSDDEQEKKPEAPKLSKKKLRRMNRFTVAELKQLVARPDVVEMHDVTAQDPKLLVHLKATRNSVPVPRHWCFKRKYLQGKRGIEKPPFELPDFIKRTGIQEMREALQEKEEQKTMKSKMREKVRPKMGKIDIDYQKLHDAFFKWQTKPKLTIHGDLYYEGKEFETRLKEKKPGDLSDELRISLGMPVGPNAHKVPPPWLIAMQRYGPPPSYPNLKIPGLNSPIPESCSFGYHAGGWGKPPVDETGKPLYGDVFGTNAAEFQTKTEEEEIDRTPWGELEPSDEESSEEEEEEESDEDKPDETGFITPADSGLITPGGFSSVPAGMETPELIELRKKKIEEAMDGSETPQLFTVLPEKRTATVGGAMMGSTHIYDMSTVMSRKGPAPELQGVEVALAPEELELDPMAMTQKYEEHVREQQAQVEKEDFSDMVAEHAAKQKQKKRKAQPQDSRGGSKKYKEFKF
As to B1, the Km in the data set on PRMT9 is 0.08 µM.
